Test results as given in PMC11401861, “Assessment of the in vitro anti-diabetic activity with molecular dynamic simulations of limonoids isolated from Adalia lemon peels” (Scientific Reports, 2024).
In brackets after ≈: the same amount, converted by molar mass.

What was measured:
[1] = tested on: α-amylase; assay: Native electrophoretic α-amylase isoenzyme pattern (PAGE); format: biochemical; details: standard enzyme treated with 100 µg/mL
Method: (§1) The relative mobility (Rf), band quantity (Qty) and band percent (B%) of the electrophoretically detected isoenzyme types on the PAGE plate were determined using the Quantity One software program (version 4.6.2). The equation proposed by Nei and Li[39] was used to calculate the percentages of similarity index (SI%) and physiological difference (Diff%).

[2] = ABTS radical scavenging assay; details: for IC50 against ABTS radical: Fig. 2a
Method: (§2) All in vitro biological activities of the limonoids-rich extract and the isolated compounds were assayed in triplicate at three different concentrations (50, 100, and 200 µg/mL).
(§3) The ABTS scavenging capacities of the samples were compared with that of ascorbic acid. The percent inhibition of the ABTS radical was calculated. The IC50 of each tested sample was determined by plotting a curve using a series of sample concentrations against the percent of ABTS inhibition.

[3] = Nitric oxide (NO) radical scavenging activity (Griess Illosvory reagent); details: for IC50 against NO radical: Fig. 2a
Method: as §2
as §3, with “The nitric oxide (NO) radical scavenging activity was estimated by the reaction with Griess Illosvory reagent based on the method proposed by Chakraborthy[34]. The NO” for “The ABTS”, “the NO” for “the ABTS”, “of NO” for “of ABTS”

[4] = molecular target: α-glucosidase; assay: α-Glucosidase enzyme inhibition assay; format: biochemical; details: for IC50 against α-glucosidase: Fig. 2b
Method: as §2
(§4) The IC50 of each tested sample was determined by plotting a curve using a series of sample concentrations against the percent of enzyme inhibition.

[5] = tested on: α-glucosidase; assay: SDS-PAGE electrophoretic α-glucosidase pattern; format: biochemical; details: 100 µg/mL
Method: as §1

[6] = Total antioxidant capacity (TAC), method of Prieto et al.
Method: as §2
The method proposed by Prieto et al.[30] was used to determine the total antioxidant capacity (TAC) expressed as mg […] equivalent per gram weight, using ascorbic acid at the same concentrations as a standard.

[7] = molecular target: α-amylase; assay: α-Amylase enzyme inhibition assay; format: biochemical; details: for IC50 against α-amylase: Fig. 2b
Method: as §2, §4

[8] = Iron reducing power (IRP), method of Oyaizu
[9] = DPPH radical scavenging activity; details: for IC50 against DPPH radical: Fig. 2a
Method: as §2
The 1,1-Diphenyl-2-picryl-hydrazyl (DPPH) radical scavenging activity was evaluated using the method described by Rahman et al.[32]. Ascorbic acid was used as a positive control at the same concentrations. The inhibition percentage of the DPPH free radical was calculated. The median inhibitory concentration (IC50) of each tested sample was determined by plotting a curve using a series of sample concentrations against the percentage of DPPH inhibition.

Row | Compound | Change in electrophoretic α-amylase isoenzyme pattern [1] | Diff% (physiological difference) of electrophoretic α-amylase pattern from the standard enzyme [1] [%] | SI% (similarity index) of electrophoretic α-amylase pattern to the standard enzyme [1] [%] | IC50 against ABTS radical [2] [µg/mL] | ABTS Inhibition (%) ([2]; sample concentration 50 µg/mL) | ABTS Inhibition (%) ([2]; sample concentration 100 µg/mL) | ABTS Inhibition (%) ([2]; sample concentration 200 µg/mL) | IC50 against NO radical [3] [µg/mL] | NO Inhibition (%) ([3]; sample concentration 50 µg/mL) | NO Inhibition (%) ([3]; sample concentration 100 µg/mL) | NO Inhibition (%) ([3]; sample concentration 200 µg/mL) | IC50 against α-glucosidase [4] [µg/mL] | α-Glucosidase Inhibition (%) ([4]; sample concentration 50 µg/mL) | α-Glucosidase Inhibition (%) ([4]; sample concentration 100 µg/mL) | α-Glucosidase Inhibition (%) ([4]; sample concentration 200 µg/mL) | Diff% (decrease in the quantity of the identified α-glucosidase band) [5] [%] | Qty (band quantity) of the α-glucosidase band [5] | α-Amylase Inhibition (%) ([7]; sample concentration 50 µg/mL) | α-Amylase Inhibition (%) ([7]; sample concentration 100 µg/mL) | α-Amylase Inhibition (%) ([7]; sample concentration 200 µg/mL) | further results
1 | CC1(C)OC(=O)C=C[C@]2(C)[C@H]3CC[C@@](C)([C@@H](O[C@@H]4O[C@H](CO)[C@@H](O)[C@H](O)[C@H]4O)c4ccoc4)[C@@]4(O[C@@H]4C(=O)O)[C@]3(C)C(=O)C[C@@H]12 [Cpd4, obacunone 17-O-β-D-glucopyranoside] | severe abnormalities | 100.00 | 0.00 | 4.53 ± 0.02 (≈ 7.14 µM) | 22.03 ± 0.07 | 39.20 ± 0.13 | 69.78 ± 0.23 | 5.70 ± 0.03 (≈ 8.98 µM) | 18.48 ± 0.06 | 32.90 ± 0.11 | 58.55 ± 0.20 | 2.46 ± 0.02 (≈ 3.88 µM) | 14.78 ± 0.07 | 26.30 ± 0.13 | 46.81 ± 0.23 | 64.41 | 6.64 | 18.93 ± 0.07 | 33.69 ± 0.13 | 59.96 ± 0.23 | TAC ([6]; sample concentration 50 µg/mL): 27.18 ± 0.07 mg gallic acid/g; TAC ([6]; sample concentration 100 µg/mL): 48.37 ± 0.13 mg gallic acid/g; TAC ([6]; sample concentration 200 µg/mL): 86.10 ± 0.23 mg gallic acid/g; IC50 against α-amylase [7]: 3.61 ± 0.02 µg/mL (≈ 5.69 µM); IRP ([8]; sample concentration 50 µg/mL): 22.03 ± 0.07 µg/mL; IRP ([8]; sample concentration 100 µg/mL): 39.20 ± 0.13 µg/mL; IRP ([8]; sample concentration 200 µg/mL): 69.78 ± 0.23 µg/mL; IC50 against DPPH radical [9]: 5.12 ± 0.02 µg/mL (≈ 8.07 µM); DPPH Inhibition (%) ([9]; sample concentration 50 µg/mL): 23.63 ± 0.06%; DPPH Inhibition (%) ([9]; sample concentration 100 µg/mL): 42.06 ± 0.11%; DPPH Inhibition (%) ([9]; sample concentration 200 µg/mL): 74.87 ± 0.20%
2 | C[C@H]1O[C@H](O[C@H]2[C@H](O)[C@@H](O)[C@@H](O[C@H]3[C@H](O)[C@@H](O)C(O)O[C@@H]3CO)O[C@@H]2CO)[C@H](O)[C@@H](O)[C@@H]1N[C@H]1C=C(CO)[C@@H](O)[C@H](O)[C@H]1O (stereo partly shown) [Acarbose, acarbose, reference compound] | complete denaturation |  |  |  |  |  |  |  |  |  |  |  | 17.69 ± 0.08 | 29.73 ± 0.13 | 52.92 ± 0.23 |  |  | 21.84 ± 0.08 | 37.12 ± 0.13 | 66.07 ± 0.23 | Change in electrophoretic α-glucosidase pattern [5]: complete denaturation
3 | CC1(C)OC2CC(=O)OCC23C1CC(=O)C1(C)C3CC[C@@](C)([C@@H](O[C@@H]2O[C@H](CO)[C@@H](O)[C@H](O)[C@H]2O)c2ccoc2)C12OC2C(=O)O (stereo partly drawn) [Cpd5, limonin 17-O-β-D-glucopyranoside] | severe abnormalities | 100.00 | 0.00 | 4.48 ± 0.02 (≈ 6.89 µM) | 22.30 ± 0.07 | 39.69 ± 0.13 | 70.65 ± 0.23 | 5.62 ± 0.03 (≈ 8.64 µM) | 18.72 ± 0.06 | 33.32 ± 0.11 | 59.30 ± 0.20 | 2.42 ± 0.02 (≈ 3.72 µM) | 15.05 ± 0.07 | 26.78 ± 0.13 | 47.67 ± 0.23 | 69.27 | 5.73 | 19.20 ± 0.07 | 34.17 ± 0.13 | 60.82 ± 0.23 | TAC ([6]; sample concentration 50 µg/mL): 27.45 ± 0.07 mg gallic acid/g; TAC ([6]; sample concentration 100 µg/mL): 48.86 ± 0.13 mg gallic acid/g; TAC ([6]; sample concentration 200 µg/mL): 86.96 ± 0.23 mg gallic acid/g; IC50 against α-amylase [7]: 3.56 ± 0.02 µg/mL (≈ 5.47 µM); IRP ([8]; sample concentration 50 µg/mL): 22.30 ± 0.07 µg/mL; IRP ([8]; sample concentration 100 µg/mL): 39.69 ± 0.13 µg/mL; IRP ([8]; sample concentration 200 µg/mL): 70.65 ± 0.23 µg/mL; IC50 against DPPH radical [9]: 5.07 ± 0.02 µg/mL (≈ 7.79 µM); DPPH Inhibition (%) ([9]; sample concentration 50 µg/mL): 23.87 ± 0.06%; DPPH Inhibition (%) ([9]; sample concentration 100 µg/mL): 42.48 ± 0.11%; DPPH Inhibition (%) ([9]; sample concentration 200 µg/mL): 75.62 ± 0.20%
